Measured values reported in ChEMBL document CHEMBL3779786, “Tabtoxinine--lactam is a stealth -lactam antibiotic that evades -lactamase-mediated antibiotic resistance” (Medchemcomm, 2016).
In brackets after ≈: the same amount, converted by molar mass. Activity calls are given as the source filed them. No cut-off for these calls is given here.

Columns and labels:
Escherichia coli [1] = assay: Antibacterial activity against Escherichia coli DH5alpha expressing beta lactamase NDM-1 in glutamine-free minimal media after 24 hrs by broth microdilution method; assay type: functional; settings: DH5[alpha]
Escherichia coli [2] = assay: Antibacterial activity against Escherichia coli DH5alpha expressing beta lactamase CTX-M-15 in glutamine-free minimal media after 24 hrs by broth microdilution method; assay type: functional; settings: DH5[alpha]
Escherichia coli [3] = assay: Antibacterial activity against Escherichia coli DH5alpha expressing beta lactamase TEM-1 in glutamine-free minimal media after 24 hrs by broth microdilution method; assay type: functional; settings: DH5[alpha]
Escherichia coli [4] = assay: Antibacterial activity against Escherichia coli DH5alpha expressing beta lactamase SHV-12 in glutamine-free minimal media after 24 hrs by broth microdilution method; assay type: functional; settings: DH5[alpha]
Escherichia coli [5] = assay: Antibacterial activity against Escherichia coli DH5alpha expressing beta lactamase OXA-24/40 in glutamine-free minimal media after 24 hrs by broth microdilution method; assay type: functional; settings: DH5[alpha]
Escherichia coli [6] = assay: Antibacterial activity against Escherichia coli DH5alpha expressing beta lactamase SHV-5 in glutamine-free minimal media after 24 hrs by broth microdilution method; assay type: functional; settings: DH5[alpha]
Escherichia coli [7] = assay: Antibacterial activity against Escherichia coli DH5alpha expressing beta lactamase KPC-3 in glutamine-free minimal media after 24 hrs by broth microdilution method; assay type: functional; settings: DH5[alpha]
Escherichia coli [8] = assay: Antibacterial activity against Escherichia coli BL21(DE3) expressing beta lactamase CTX-M-9 with no leader sequence in glutamine-free minimal media after 24 hrs by broth microdilution method; assay type: functional
Escherichia coli [9] = assay: Antibacterial activity against Escherichia coli BL21(DE3) in glutamine-free minimal media after 24 hrs by broth microdilution method; assay type: functional
Escherichia coli [10] = assay: Antibacterial activity against Escherichia coli DH5alpha expressing beta lactamase VIM-2 in glutamine-free minimal media after 24 hrs by broth microdilution method; assay type: functional; settings: DH5[alpha]
Escherichia coli [11] = assay: Antibacterial activity against Escherichia coli BL21(DE3) expressing beta lactamase TEM-1 with no leader sequence in glutamine-free minimal media after 24 hrs by broth microdilution method; assay type: functional
Escherichia coli [12] = assay: Antibacterial activity against Escherichia coli DH5alpha expressing beta lactamase TEM-24 in glutamine-free minimal media after 24 hrs by broth microdilution method; assay type: functional; settings: DH5[alpha]
Escherichia coli [13] = assay: Antibacterial activity against Escherichia coli BL21(DE3) expressing beta lactamase TEM-1 in glutamine-free minimal media after 24 hrs by broth microdilution method; assay type: functional
Escherichia coli [14] = assay: Antibacterial activity against Escherichia coli DH5alpha in glutamine-free minimal media after 24 hrs by broth microdilution method; assay type: functional; settings: DH5[alpha]
Escherichia coli [15] = assay: Antibacterial activity against Escherichia coli BL21(DE3) expressing beta lactamase CTX-M-9 in glutamine-free minimal media after 24 hrs by broth microdilution method; assay type: functional
Escherichia coli [16] = assay: Antibacterial activity against Escherichia coli BL21(DE3) expressing beta lactamase TEM-64 in glutamine-free minimal media after 24 hrs by broth microdilution method; assay type: functional
Escherichia coli [17] = assay: Antibacterial activity against Escherichia coli ATCC 25922 in glutamine-free minimal media after 24 hrs by broth microdilution method; assay type: functional; settings: ATCC 25922, 24 h
[18] = Drug metabolism assessed as 2 nM Escherichia coli DH5alpha beta lactamase CTX-M-9 mediated metabolite formation at 1 mM after 30 mins by HPLC analysis; assay type: ADME; settings: escherichia coli dh5[alpha], 0.5 h, 1000 µM
[19] = Drug metabolism assessed as 2 nM Escherichia coli DH5alpha beta lactamase TEM-1 mediated metabolite formation at 1 mM after 30 mins by HPLC analysis; assay type: ADME; settings: escherichia coli dh5[alpha], 0.5 h, 1000 µM
[20] = Drug metabolism assessed as 2 nM Escherichia coli DH5alpha beta lactamase TEM-1 mediated metabolite formation at 1 mM after 30 mins by LCMS analysis; assay type: ADME; settings: escherichia coli dh5[alpha], 0.5 h, 1000 µM
[21] = Drug metabolism assessed as 1 uM Escherichia coli DH5alpha beta lactamase CTX-M-9 mediated metabolite formation at 1 mM after 5 hrs by LCMS analysis; assay type: ADME; settings: escherichia coli dh5[alpha], 1000 µM
[22] = Drug metabolism assessed as 1 uM Escherichia coli DH5alpha beta lactamase CTX-M-9 mediated metabolite formation at 1 mM after 5 hrs by HPLC analysis; assay type: ADME; settings: escherichia coli dh5[alpha], 1000 µM
[23] = Drug metabolism assessed as 1 uM Escherichia coli DH5alpha beta lactamase TEM-1 mediated metabolite formation at 1 mM after 5 hrs by LCMS analysis; assay type: ADME; settings: escherichia coli dh5[alpha], 1000 µM
[24] = Drug metabolism assessed as 2 nM Escherichia coli DH5alpha beta lactamase CTX-M-9 mediated metabolite formation at 1 mM after 30 mins by LCMS analysis; assay type: ADME; settings: escherichia coli dh5[alpha], 0.5 h, 1000 µM
[25] = Drug metabolism assessed as 1 uM Escherichia coli DH5alpha beta lactamase TEM-1 mediated metabolite formation at 1 mM after 5 hrs by HPLC analysis; assay type: ADME; settings: escherichia coli dh5[alpha], 1000 µM
Staphylococcus aureus = assay: Bacteriostatic activity against Staphylococcus aureus in glutamine-free minimal media; assay type: functional, organism-based
Escherichia coli [26] = assay: Bactericidal activity against Escherichia coli; assay type: functional, organism-based
Escherichia coli [27] = assay: Antibacterial activity against Escherichia coli in glutamine containing nutrient broth at 0.06 to 128 uM; assay type: functional, organism-based
[28] = Drug level assessed as 2 nM Escherichia coli DH5alpha beta lactamase CTX-M-9 mediated compound formation treated with benzyl penicillin at 1 mM after 30 mins by HPLC analysis; assay type: ADME; settings: escherichia coli dh5[alpha], 0.5 h, 1000 µM
[29] = Drug level assessed as 1 uM Escherichia coli DH5alpha beta lactamase TEM-1 mediated compound formation treated with benzyl penicillin at 1 mM after 5 hrs by LCMS analysis; assay type: ADME; settings: escherichia coli dh5[alpha], 1000 µM
[30] = Drug level assessed as 1 uM Escherichia coli DH5alpha beta lactamase TEM-1 mediated compound formation treated with benzyl penicillin at 1 mM after 5 hrs by HPLC analysis; assay type: ADME; settings: escherichia coli dh5[alpha], 1000 µM
[31] = Drug level assessed as 2 nM Escherichia coli DH5alpha beta lactamase TEM-1 mediated compound formation treated with benzyl penicillin at 1 mM after 30 mins by LCMS analysis; assay type: ADME; settings: escherichia coli dh5[alpha], 0.5 h, 1000 µM
[32] = Drug level assessed as 1 uM Escherichia coli DH5alpha beta lactamase CTX-M-9 mediated compound formation treated with benzyl penicillin at 1 mM after 5 hrs by HPLC analysis; assay type: ADME; settings: escherichia coli dh5[alpha], 1000 µM
[33] = Drug level assessed as 2 nM Escherichia coli DH5alpha beta lactamase TEM-1 mediated compound formation treated with benzyl penicillin at 1 mM after 30 mins by HPLC analysis; assay type: ADME; settings: escherichia coli dh5[alpha], 0.5 h, 1000 µM
[34] = Drug level assessed as 1 uM Escherichia coli DH5alpha beta lactamase CTX-M-9 mediated compound formation treated with benzyl penicillin at 1 mM after 5 hrs by LCMS analysis; assay type: ADME; settings: escherichia coli dh5[alpha], 1000 µM
[35] = Drug level assessed as 2 nM Escherichia coli DH5alpha beta lactamase CTX-M-9 mediated compound formation treated with benzyl penicillin at 1 mM after 30 mins by LCMS analysis; assay type: ADME; settings: escherichia coli dh5[alpha], 0.5 h, 1000 µM
[36] = Drug metabolism assessed as 2 nM Escherichia coli DH5alpha beta lactamase TEM-1 mediated formation of benzyl penicilloic acid at 1 mM after 30 mins by LCMS analysis; assay type: ADME; settings: escherichia coli dh5[alpha], 0.5 h, 1000 µM
[37] = Drug metabolism assessed as 1 uM Escherichia coli DH5alpha beta lactamase CTX-M-9 mediated formation of benzyl penicilloic acid at 1 mM after 5 hrs by HPLC analysis; assay type: ADME; settings: escherichia coli dh5[alpha], 1000 µM
[38] = Drug metabolism assessed as 2 nM Escherichia coli DH5alpha beta lactamase TEM-1 mediated formation of benzyl penicilloic acid at 1 mM after 30 mins by HPLC analysis; assay type: ADME; settings: escherichia coli dh5[alpha], 0.5 h, 1000 µM
[39] = Drug metabolism assessed as 1 uM Escherichia coli DH5alpha beta lactamase TEM-1 mediated formation of benzyl penicilloic acid at 1 mM after 5 hrs by HPLC analysis; assay type: ADME; settings: escherichia coli dh5[alpha], 1000 µM
[40] = Drug metabolism assessed as 1 uM Escherichia coli DH5alpha beta lactamase TEM-1 mediated formation of benzyl penicilloic acid at 1 mM after 5 hrs by LCMS analysis; assay type: ADME; settings: escherichia coli dh5[alpha], 1000 µM
[41] = Drug metabolism assessed as 1 uM Escherichia coli DH5alpha beta lactamase CTX-M-9 mediated formation of benzyl penicilloic acid at 1 mM after 5 hrs by LCMS analysis; assay type: ADME; settings: escherichia coli dh5[alpha], 1000 µM
[42] = Drug metabolism assessed as 2 nM Escherichia coli DH5alpha beta lactamase CTX-M-9 mediated formation of benzyl penicilloic acid at 1 mM after 30 mins by HPLC analysis; assay type: ADME; settings: escherichia coli dh5[alpha], 0.5 h, 1000 µM
[43] = Drug metabolism assessed as 2 nM Escherichia coli DH5alpha beta lactamase CTX-M-9 mediated formation of benzyl penicilloic acid at 1 mM after 30 mins by LCMS analysis; assay type: ADME; settings: escherichia coli dh5[alpha], 0.5 h, 1000 µM

Compound	MIC90 (Escherichia coli [1])	MIC90 (Escherichia coli [2])	MIC90 (Escherichia coli [3])	MIC90 (Escherichia coli [4])	MIC90 (Escherichia coli [5])	MIC90 (Escherichia coli [6])	MIC90 (Escherichia coli [7])	MIC90 (Escherichia coli [8])	MIC90 (Escherichia coli [9])	MIC90 (Escherichia coli [10])	MIC90 (Escherichia coli [11])	MIC90 (Escherichia coli [12])	MIC90 (Escherichia coli [13])	MIC90 (Escherichia coli [14])	MIC90 (Escherichia coli [15])	MIC90 (Escherichia coli [16])	Drug metabolism [18]	Drug metabolism [19]	Drug metabolism [20]	Drug metabolism [21]	other results
CC1(C)S[C@@H]2[C@H](NC(=O)[C@H](N)c3ccccc3)C(=O)N2[C@H]1C(=O)O [AMPICILLIN]	> 128 µM	> 128 µM	> 128 µM	> 128 µM	> 128 µM	> 128 µM	> 128 µM	128 µM (≈ 44.7 µg/mL)	0.5 µM (≈ 0.175 µg/mL)	> 128 µM	> 128 µM	> 128 µM	> 128 µM	2 µM (≈ 0.699 µg/mL)	128 µM (≈ 44.7 µg/mL)	> 128 µM	–	–	–	–	–
N[C@@H](CC[C@]1(O)CNC1=O)C(=O)O	–	–	–	–	–	–	–	–	–	–	–	–	–	–	–	–	metabolite_detected	metabolite_detected	metabolite_detected	metabolite_detected	MIC90 (Escherichia coli [17]): > 128 µM; Drug metabolism [22]: metabolite_detected; Drug metabolism [23]: metabolite_detected; Drug metabolism [24]: metabolite_detected; Drug metabolism [25]: metabolite_detected
C[C@@H](O)[C@H](NC(=O)[C@@H](N)CC[C@]1(O)CNC1=O)C(=O)O	0.5 µM (≈ 0.145 µg/mL)	0.125 µM (≈ 0.0362 µg/mL)	0.25 µM (≈ 0.0723 µg/mL)	0.25 µM (≈ 0.0723 µg/mL)	2 µM (≈ 0.579 µg/mL)	< 0.031 µM	0.5 µM (≈ 0.145 µg/mL)	8 µM (≈ 2.31 µg/mL)	8 µM (≈ 2.31 µg/mL)	2 µM (≈ 0.579 µg/mL)	16 µM (≈ 4.63 µg/mL)	0.0625 µM (≈ 0.0181 µg/mL)	4 µM (≈ 1.16 µg/mL)	0.5 µM (≈ 0.145 µg/mL)	4 µM (≈ 1.16 µg/mL)	16 µM (≈ 4.63 µg/mL)	metabolite_detected	metabolite_detected	metabolite_detected	metabolite_detected	Activity (Staphylococcus aureus): Active; Drug metabolism [22]: metabolite_detected; Drug metabolism [23]: metabolite_detected; Drug metabolism [24]: metabolite_detected; Drug metabolism [25]: metabolite_detected; Activity (Escherichia coli [26]): inactive; Activity (Escherichia coli [27]): inactive
CC1(C)S[C@H]([C@H](NC(=O)Cc2ccccc2)C(=O)O)N[C@H]1C(=O)O	–	–	–	–	–	–	–	–	–	–	–	–	–	–	–	–	–	–	–	–	Drug metabolism [28]: metabolite_detected; Drug metabolism [29]: metabolite_detected; Drug metabolism [30]: metabolite_detected; Drug metabolism [31]: metabolite_detected; Drug metabolism [32]: metabolite_detected; Drug metabolism [33]: metabolite_detected; Drug metabolism [34]: metabolite_detected; Drug metabolism [35]: metabolite_detected
CC1(C)S[C@@H]2[C@H](NC(=O)Cc3ccccc3)C(=O)N2[C@H]1C(=O)O [PENICILLIN G]	–	–	–	–	–	–	–	128 µM (≈ 42.8 µg/mL)	4 µM (≈ 1.34 µg/mL)	–	> 128 µM	–	> 128 µM	–	128 µM (≈ 42.8 µg/mL)	> 128 µM	–	–	–	–	Drug metabolism [36]: metabolite_detected; Drug metabolism [37]: metabolite_detected; Drug metabolism [38]: metabolite_detected; Drug metabolism [39]: metabolite_detected; Drug metabolism [40]: metabolite_detected; Drug metabolism [41]: metabolite_detected; Drug metabolism [42]: metabolite_detected; Drug metabolism [43]: metabolite_detected
GENTAMICIN	1 µM	1 µM	1 µM	0.5 µM	0.5 µM	< 0.25 µM	0.5 µM	1.4 µM	1.4 µM	1 µM	1.4 µM	0.5 µM	1.4 µM	0.25 µM	1.4 µM	1.4 µM	–	–	–	–	–
